From publication PMC12311259, “Antifibrotic effects of specific targeting of the 5‐hydroxytryptamine 2B receptor (5‐HT2BR) in murine models and ex vivo models of scleroderma skin” (Arthritis & Rheumatology (Hoboken, N.j.), 2025)

Test system: Bleomycin-induced pulmonary fibrosis
Test: Bleomycin-induced pulmonary fibrosis in mice
Type: in vivo, mouse
Conditions: 30 mg/kg orally qd, relative to AM1476
Protocol: Pulmonary fibrosis was induced by a single intratracheal instillation of bleomycin (25 μg in 50 μL of 0.9% NaCl).[12] Treatment was initiated at two weeks after the first injection of bleomycin. AM1476 was administered orally at 1, 3, or 10 mg/kg once daily. Solvent (double‐distilled water) was used as a control, and nintedanib at 30 mg/kg orally every day (qd) was included as a comparator. The outcome was analyzed at two and four weeks after the first injection of bleomycin. Mice injected with 0.9% NaCl, the vehicle of bleomycin, served as nonfibrotic controls. Eight mice per group were analyzed.
Skin samples were fixed in 4% formalin for six hours and embedded in paraffin. Five‐micrometer sections were cut and stained with hematoxylin and eosin (H&E). The dermal thickness was quantified on H&E‐stained sections using images captured with a light microscope (Nikon eclipse 80i) at 100‐fold magnification by manually measuring the distance between the epidermal‐dermal junction and the dermal‐subcutaneous fat junction at four sites per mouse.[15], [16] For lung samples, the whole left lung was fixed in 4% formalin for six hours and embedded in paraffin. Five‐micrometer sections were cut and stained with trichrome and sirius red. Histologic readouts were evaluation of the fibrotic area as the percentage of the total lung area in sirius red–stained sections (two sections per mouse) and quantification of pulmonary changes using the Ashcroft score (four sections per mouse).[17], [18]
The amount of collagen protein in skin and lung samples was determined by hydroxyproline assay.[19], [20] After digestion in 6 M HCl for three hours at 120°C, the pH of the samples was adjusted to a pH range of 6–7 with 6 M NaOH. Afterward, 0.06 M chloramine T was added to each sample and incubated for 20 minutes at room temperature. Next, 3.15 M perchloric acid and 20% p‐dimethylaminobenzaldehyde were added, and samples were incubated for an additional 20 minutes at 60°C. The absorbance was determined at 557 nm with a Spectra MAX 190 microplate spectrophotometer. Absolute values were determined using a standard curved generated with type I collagen (Sigma‐Aldrich).

SMILES: COC(=O)c1ccc2c(c1)NC(=O)/C2=C(\Nc1ccc(N(C)C(=O)CN2CCN(C)CC2)cc1)c1ccccc1 [nintedanib, reference compound]
- antifibrotic effects across the different readouts: comparable
